Reference: patent publication EP0322251A2, “Benzothiopyran derivatives” (BEECHAM GROUP PLC, priority 1987, dated 1989)

System: Spontaneously hypertensive rats
Assay: Blood pressure lowering activity, tail cuff method
Assay type: in vivo
Protocol: Blood Pressure Lowering Activity
Systolic blood pressures were recorded by a modification of the tail cuff method described by I.M. Claxton, M.G. Palfreyman, R.H. Poyser, R.L. Whiting, European Journal of Pharmacology, 37, 179 (1976). A W+W BP recorder, model 8005 was used to display pulses. Prior to all measurements rats were placed in a heated environment (33.5 ± 0.5°C) before transfer to a restraining cage. Each determination of blood pressure was the mean of at least 6 readings. Spontaneously hypertensive rats (ages 12-18 weeks) with systolic blood pressures >180 mmHg were considered hypertensive.

Q: Which results are given for `Cc1ccc2c(c1)C(N1CCCC1=O)=CC(C)(C)S2(=O)=O` [Example 2, 4-(2-Oxopyrrolidin-1-yl)-2,2,6-trimethyl-2H-1-benzothiapyran-1,1-dioxide]?
A: % Change in Systolic Blood Pressure (dose 10 mg/kg, 1 hour post dose): -50 ± 2 (n=5) %; % Change in Systolic Blood Pressure (dose 10 mg/kg, 2 hours post dose): -34 ± 4 (n=5) %; % Change in Systolic Blood Pressure (dose 10 mg/kg, 4 hours post dose): -22 ± 3 (n=4) %; % Change in Systolic Blood Pressure (dose 10 mg/kg, 6 hours post dose): -15 ± 2 (n=4) %

Q: What does the source list for `Cc1ccc2c(c1)[C@@H](N1CCCCC1=O)[C@H](O)C(C)(C)S2(=O)=O` (relative stereo) [Example 3, Trans 3.4-dihydro-4-(2-oxopiperidin-1-yl)-2,2,6-trimethyl-2H-1-benzothiapyran-3-ol-1,1-dioxide]?
A: % Change in Systolic Blood Pressure (dose 30 mg/kg, 1 hour post dose): -25 (n=2) %; % Change in Systolic Blood Pressure (dose 30 mg/kg, 2 hours post dose): -31 ± 7 (n=3) %; % Change in Systolic Blood Pressure (dose 30 mg/kg, 4 hours post dose): -16 ± 2 (n=3) %; % Change in Systolic Blood Pressure (dose 30 mg/kg, 6 hours post dose): -14 ± 3 (n=3) %

Q: How did the “% Change in Systolic Blood Pressure” value (dose 1 mg/kg, 1 hour post dose) turn out when `Cc1ccc2c(c1)C(N1CCCCC1=O)[C@H](O)C(C)(C)S2` (stereo partly drawn) [Example 1, Trans 3,4-Dihydro-4-(2-oxopiperidin-1-yl)-2,2,6-trimethyl-2H-1-benzothiapyran-3-ol] was run?
A: -22 ± 5 (n=6) %

Q: What about the “% Change in Systolic Blood Pressure” value (dose 1 mg/kg, 2 hours post dose) of the same compound?
A: -17 ± 6 (n=6) %

Q: What about the “% Change in Systolic Blood Pressure” value (dose 1 mg/kg, 4 hours post dose) of the same compound?
A: -12 ± 11 (n=6) %
